# Experimental data: patent publication US6525001B1, “Substituted pyrimidine and pyridine herbicides” (Mid-American Commercialization Corporation, priority 1997, dated 2003)
# Experiments:
# Type in all cases: in vivo
# [1] = tested on: field bindweed (Convolvulus arvensis); assay: Test C; set-up: key: 0 was no effect; 100 was complete control; conditions: PREEMERGENCE
# [2] = tested on: soybean (Glycine max); assay: Test C; set-up: key: 0 was no effect; 100 was complete control; conditions: PREEMERGENCE
# [3] = tested on: redroot pigweed (Amaranthus retroflexus); assay: Test C; set-up: key: 0 was no effect; 100 was complete control; conditions: PREEMERGENCE
# [4] = tested on: lambsquarters (Chenopodium album); assay: Test C; set-up: key: 0 was no effect; 100 was complete control; conditions: PREEMERGENCE
# [5] = tested on: fall panicum (Panicum dichotomiflorum); assay: Test C; set-up: key: 0 was no effect; 100 was complete control; conditions: PREEMERGENCE
# [6] = tested on: giant foxtail (Setaria faberii); assay: Test C; set-up: key: 0 was no effect; 100 was complete control; conditions: PREEMERGENCE
# [7] = tested on: wild poinsettia (Euphorbia heterophylla); assay: Test C; set-up: key: 0 was no effect; 100 was complete control; conditions: PREEMERGENCE
# [8] = tested on: cotton (Gossypium hirsutum); assay: Test C; conditions: PREEMERGENCE
# [9] = tested on: surinam grass (Brachiaria decumbens); assay: Test C; conditions: PREEMERGENCE
# [10] = tested on: common ragweed (Ambrosia elatior); assay: Test C; conditions: PREEMERGENCE
# [11] = tested on: eastern black nightshade (Solanum ptycanthum); assay: Test C; set-up: key: 0 was no effect; 100 was complete control; conditions: PREEMERGENCE
# [12] = tested on: bamyardgrass (Echinochloa crus-galli); assay: Test B flood test
# Outline: (§1)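 Plants were grown to the 2-leaf stage before treatment with test chemical, then held in a greenhouse for twelve to sixteen days. Injury was visually rated against untreated controls on a 0–10 scale, where 0 is no effect and 10 is complete control.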
# [13] = tested on: smallflower flatsedge (Cyperus difformis); assay: Test B flood test
# Outline: as §1
# [14] = tested on: rice (Oryza sativa); assay: Test B flood test
# Outline: as §1
# [15] = tested on: duck salad (Heteranthera limosa); assay: Test B flood test
# Outline: as §1
# [16] = tested on: purple nutsedge (Cyperus rotundus); assay: Test B pre-/postemergence; set-up: key: 0 is no effect; 10 is complete control
# Outline: (§2)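 Seeds were planted and sprayed preemergence, while plants at 2 to 18 cm (1- to 4-leaf stage) were sprayed postemergence at the same time, with test chemical in a non-phytotoxic solvent mixture containing surfactant. After twelve to sixteen days in a greenhouse, injury was rated visually against untreated controls on a 0–10 scale.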
# [17] = tested on: wild oat (Avena fatua); assay: Test B pre-/postemergence; set-up: key: 0 is no effect; 10 is complete control
# Outline: as §2
# [18] = Rate 62 g/ha, Postemergence (flood test)
# [19] = Rate 125 g/ha, Postemergence, flood test
# [20] = Rate 250 g/ha, Postemergence (flood test species)
smiles,measurement,setting,value
Cc1cnc(-c2ccc(C(F)(F)F)cc2)nc1Cc1cccc(OC(F)(F)F)c1 [Compound 15],"Plant response rating, Field bindweed",[1]; Rate 35 g/ha,65
same,"Plant response rating, Field bindweed",[1]; Rate 70 g/ha,100
same,"Plant response rating, Field bindweed",[1]; Rate 140 g/ha,100
same,"Plant response rating, Soybean",[2]; Rate 35 g/ha,0
same,"Plant response rating, Soybean",[2]; Rate 70 g/ha,10
same,"Plant response rating, Soybean",[2]; Rate 140 g/ha,10
same,"Plant response rating, Redroot pigweed",[3]; Rate 35 g/ha,60
same,"Plant response rating, Redroot pigweed",[3]; Rate 70 g/ha,85
same,"Plant response rating, Redroot pigweed",[3]; Rate 140 g/ha,100
same,"Plant response rating, Lambsquarters",[4]; Rate 35 g/ha,0
same,"Plant response rating, Lambsquarters",[4]; Rate 70 g/ha,20
same,"Plant response rating, Lambsquarters",[4]; Rate 140 g/ha,60
same,"Plant response rating, Fall panicum",[5]; Rate 35 g/ha,40
same,"Plant response rating, Fall panicum",[5]; Rate 70 g/ha,80
same,"Plant response rating, Fall panicum",[5]; Rate 140 g/ha,100
same,"Plant response rating, Giant foxtail",[6]; Rate 35 g/ha,70
same,"Plant response rating, Giant foxtail",[6]; Rate 70 g/ha,100
same,"Plant response rating, Giant foxtail",[6]; Rate 140 g/ha,100
same,"Plant response rating, Wild poinsettia",[7]; Rate 35 g/ha,0
same,"Plant response rating, Wild poinsettia",[7]; Rate 70 g/ha,0
same,"Plant response rating, Wild poinsettia",[7]; Rate 140 g/ha,20
same,"Plant response rating, Cotton",[8]; Rate 35 g/ha,5
same,"Plant response rating, Cotton",[8]; Rate 70 g/ha,10
same,"Plant response rating, Cotton",[8]; Rate 140 g/ha,10
same,"Plant response rating, Surinam grass",[9]; Rate 35 g/ha,20
same,"Plant response rating, Surinam grass",[9]; Rate 70 g/ha,50
same,"Plant response rating, Surinam grass",[9]; Rate 140 g/ha,80
same,"Plant response rating, Common ragweed",[10]; Rate 35 g/ha,10
same,"Plant response rating, Common ragweed",[10]; Rate 70 g/ha,20
same,"Plant response rating, Common ragweed",[10]; Rate 140 g/ha,75
same,"Plant response rating, E. blacknightsh",[11]; Rate 35 g/ha,70
same,"Plant response rating, E. blacknightsh",[11]; Rate 70 g/ha,95
same,"Plant response rating, E. blacknightsh",[11]; Rate 140 g/ha,95
same,"Plant response rating, Barnyardgrass",[12]; [18],6
same,"Plant response rating, Barnyardgrass",[12]; [19],8
same,"Plant response rating, Barnyardgrass",[12]; [20],9
same,"Plant response rating, S. Flatsedge",[13]; [18],7
same,"Plant response rating, S. Flatsedge",[13]; [19],8
same,"Plant response rating, S. Flatsedge",[13]; [20],9
same,"Plant response rating, Rice",[14]; [18],6
same,"Plant response rating, Rice",[14]; [19],7
same,"Plant response rating, Rice",[14]; [20],7
same,"Plant response rating, Ducksalad",[15]; [18],6
same,"Plant response rating, Ducksalad",[15]; [19],6
same,"Plant response rating, Ducksalad",[15]; [20],7
same,"Plant response rating, Nutsedge","[16]; Rate 62 g/ha, Postemergence",0
same,Nutsedge plant response rating,"[16]; Rate 62 g/ha, Preemergence",0
same,"Plant response rating, Nutsedge","[16]; Rate 125 g/ha, Postemergence",2
same,Nutsedge plant response rating,"[16]; Rate 125 g/ha, Preemergence",0
same,"Plant response rating, Nutsedge","[16]; Rate 250 g/ha, Postemergence",2
same,"Plant response rating, Nutsedge","[16]; Rate 250 g/ha, Preemergence",2
same,"Plant response rating, Wild oats","[17]; Rate 62 g/ha, Postemergence",6
same,Wild oats plant response rating,"[17]; Rate 62 g/ha, Preemergence",8
same,"Plant response rating, Wild oats","[17]; Rate 125 g/ha, Postemergence",7
same,Wild oats plant response rating,"[17]; Rate 125 g/ha, Preemergence",9
same,"Plant response rating, Wild oats","[17]; Rate 250 g/ha, Postemergence",9
same,"Plant response rating, Wild oats","[17]; Rate 250 g/ha, Preemergence",9
COc1cnc(-c2ccc(C(F)(F)F)cc2)nc1Cc1cccc(C(F)(F)F)c1 [Compound 23],"Plant response rating, Field bindweed",[1]; Rate 35 g/ha,20
same,"Plant response rating, Field bindweed",[1]; Rate 70 g/ha,100
same,"Plant response rating, Field bindweed",[1]; Rate 140 g/ha,100
same,"Plant response rating, Soybean",[2]; Rate 35 g/ha,5
same,"Plant response rating, Soybean",[2]; Rate 70 g/ha,5
same,"Plant response rating, Soybean",[2]; Rate 140 g/ha,10
same,"Plant response rating, Redroot pigweed",[3]; Rate 35 g/ha,100
same,"Plant response rating, Redroot pigweed",[3]; Rate 70 g/ha,100
same,"Plant response rating, Redroot pigweed",[3]; Rate 140 g/ha,100
same,"Plant response rating, Lambsquarters",[4]; Rate 35 g/ha,60
same,"Plant response rating, Lambsquarters",[4]; Rate 70 g/ha,100
same,"Plant response rating, Lambsquarters",[4]; Rate 140 g/ha,100
same,"Plant response rating, Fall panicum",[5]; Rate 35 g/ha,55
same,"Plant response rating, Fall panicum",[5]; Rate 70 g/ha,100
same,"Plant response rating, Fall panicum",[5]; Rate 140 g/ha,100
same,"Plant response rating, Giant foxtail",[6]; Rate 35 g/ha,85
same,"Plant response rating, Giant foxtail",[6]; Rate 70 g/ha,100
same,"Plant response rating, Giant foxtail",[6]; Rate 140 g/ha,100
same,"Plant response rating, Wild poinsettia",[7]; Rate 35 g/ha,5
same,"Plant response rating, Wild poinsettia",[7]; Rate 70 g/ha,5
same,"Plant response rating, Wild poinsettia",[7]; Rate 140 g/ha,10
same,"Plant response rating, Cotton",[8]; Rate 35 g/ha,5
same,"Plant response rating, Cotton",[8]; Rate 70 g/ha,75
same,"Plant response rating, Cotton",[8]; Rate 140 g/ha,75
same,"Plant response rating, Surinam grass",[9]; Rate 35 g/ha,5
same,"Plant response rating, Surinam grass",[9]; Rate 70 g/ha,45
same,"Plant response rating, Surinam grass",[9]; Rate 140 g/ha,60
same,"Plant response rating, Common ragweed",[10]; Rate 35 g/ha,10
same,"Plant response rating, Common ragweed",[10]; Rate 70 g/ha,30
same,"Plant response rating, Common ragweed",[10]; Rate 140 g/ha,90
same,"Plant response rating, E. blacknightsh",[11]; Rate 35 g/ha,95
same,"Plant response rating, E. blacknightsh",[11]; Rate 70 g/ha,100
same,"Plant response rating, E. blacknightsh",[11]; Rate 140 g/ha,100
same,"Plant response rating, Barnyardgrass",[12]; [18],4
same,"Plant response rating, Barnyardgrass",[12]; [19],5
same,"Plant response rating, Barnyardgrass",[12]; [20],6
same,"Plant response rating, S. Flatsedge",[13]; [18],4
same,"Plant response rating, S. Flatsedge",[13]; [19],8
same,"Plant response rating, S. Flatsedge",[13]; [20],9
same,"Plant response rating, Rice",[14]; [18],3
same,"Plant response rating, Rice",[14]; [19],4
same,"Plant response rating, Rice",[14]; [20],5
same,"Plant response rating, Ducksalad",[15]; [18],2
same,"Plant response rating, Ducksalad",[15]; [19],4
same,"Plant response rating, Ducksalad",[15]; [20],6
same,"Plant response rating, Nutsedge","[16]; Rate 62 g/ha, Postemergence",0
same,"Plant response rating, Nutsedge","[16]; Rate 125 g/ha, Postemergence",0
same,Nutsedge plant response rating,"[16]; Rate 125 g/ha, Preemergence",0
same,"Plant response rating, Wild oats","[17]; Rate 62 g/ha, Postemergence",5
same,Wild oats plant response rating,"[17]; Rate 62 g/ha, Preemergence",7
same,"Plant response rating, Wild oats","[17]; Rate 125 g/ha, Postemergence",6
same,Wild oats plant response rating,"[17]; Rate 125 g/ha, Preemergence",8
same,"Plant response rating, Wild oats","[17]; Rate 250 g/ha, Postemergence",9
same,"Plant response rating, Wild oats","[17]; Rate 250 g/ha, Preemergence",9
